Publication PMC7596085, “The pathogenic S688Y mutation in the ligand-binding domain of the GluN1 subunit regulates the properties of NMDA receptors” (Scientific Reports, 2020)
Where two headings read alike, the source gives them in different places.

How the values were obtained:
[1] = molecular target: T1, hippocampal neurons expressing YFP-hGluN1-1a (Rattus norvegicus, UniProt P35439, I267L/M415L/N159S/R212K); assay: NMDA-induced excitotoxicity, hippocampal neurons expressing YFP-hGluN1-1a; type: cell-based; settings: 1 h treatment, measured 23 h later
T1 construct: expressed in transfected cells; host or cells: primary rat hippocampal neurons (E18 Wistar), lentiviral infection with shRNA knock-down of endogenous GluN1
Protocol: (§1) Excitotoxicity was measured 23 h after treatment by staining cells with the nuclear marker Hoechst 33,342 and then performing complex image analysis (Fig. 6a,b; see "Methods").
(§2) Excitotoxicity was induced as described previously. In brief, the cultured neurons were incubated overnight in 10% MEM (Thermo Fisher Scientific) and 90% salt-glucose (SG) medium containing 114 mM NaCl, 0.219% NaHCO3, 5.292 mM KCl, 1 mM MgCl2, 2 mM CaCl2, 10 mM HEPES, 30 mM glucose, […], and 0.1% phenol red. The following day, the media was replaced with 100% SG and the indicated concentrations of agonists/co-agonists were added to the neurons. […] Nuclear area was measured using ImageJ software (v. 1.52p), and custom-made macro scripts were used to automatically measure only the nuclei of infected cells (identified by YFP expression). […] The ratio of the number of cells in each group was then used to estimate the effects of mixing the two distributions and is expressed as the ratio of pyknotic and non-pyknotic cells. The percentage of pyknotic cells in each condition was then calculated as the number of cells classified as pyknotic divided by the total number of cells in that condition.

[2] = system: hippocampal neurons expressing YFP-hGluN1-1a-S688Y; assay: NMDA-induced excitotoxicity, hippocampal neurons expressing YFP-hGluN1-1a-S688Y; type: cell-based, rat; settings: 1 h treatment, measured 23 h later
Protocol: as §1, §2

hGluN1-4a-S688Y/hGluN3A = hGluN1-4a-S688Y/hGluN3A vs hGluN1-4a/hGluN3A, peak response
[3] = system: hippocampal neurons expressing YFP-hGluN1-1a; settings: steady-state concentration-response, in the presence of 1 mM NMDA
[4] = system: hippocampal neurons expressing YFP-hGluN1-1a-S688Y; settings: steady-state concentration-response, in the presence of 1 mM NMDA
[5] = system: hippocampal neurons expressing YFP-hGluN1-1a
[6] = system: hippocampal neurons expressing YFP-hGluN1-1a-S688Y; settings: 10 µM glycine together with 100 µM NMDA
GluN1 S688A mutation = settings: S688A mutation vs wild type; cited from earlier work
[7] = 10 µM co-agonist in the presence of 100 µM NMDA

Structure (SMILES)	neuronal cell death (% of d.n., pyknotic nuclei) ([1]; 10 µM co-agonist alone)	neuronal cell death / excitotoxicity (% of d.n., pyknotic nuclei) [1, 7]	neuronal cell death (% of d.n., pyknotic nuclei) ([2]; 10 µM co-agonist alone)	neuronal cell death / excitotoxicity (% of d.n., pyknotic nuclei) [2, 7]	decrease in glycine potency compared to wild-type receptors (hGluN1-4a-S688Y/hGluN3A)	EC50 [3]	Hill coefficient (h) [3]	EC50 ([3]; listed as Glycine)	EC50 [4]	Hill coefficient (h) [4]	EC50 ([4]; listed as Glycine)	intracellular Ca2+ (Fura-2 F340/F380) ([5]; 10 µM glycine together with 100 µM NMDA)	intracellular Ca2+ (Fura-2 F340/F380) ([5]; 1000 µM glycine together with 100 µM NMDA)	intracellular Ca2+ (Fura-2 F340/F380) [6]	reduction in glycine potency (GluN1 S688A mutation)
N[C@H](CO)C(=O)O [D-serine]	only a small degree of cell death	~100%	only a small degree of cell death	significantly reduced cell death											
NCC(=O)O [glycine]					~ twofold	0.2 µM	1.15 ± 0.05	0.17 ± 0.02 µM	220 µM	0.82 ± 0.06	219 ± 6.11 µM	robust increase	robust increase	no measurable effect	four-fold
